Like-named read-outs stand apart in the source and are kept apart here. Positions of bridges follow the written chain, without caps; N, C: chain ends. Non-standard residues stand in square brackets, D forms with d. Residues, ends and D or L forms follow the SMILES beside them. ξ: configuration not given here. Phe(3,4-Me2) = Cc1ccc(C[C@H](N)C(=O)O)cc1C; Phe(4-Cl) = N[C@@H](Cc1ccc(Cl)cc1)C(=O)O; Pro(5S-Me) = C[C@H]1CC[C@@H](C(=O)O)N1; Bta = N[C@@H](Cc1csc2ccccc12)C(=O)O; Hyp = O=C(O)[C@@H]1C[C@@H](O)CN1; NMeD = CN[C@@H](CC(=O)O)C(=O)O; dNMeNle = CCCC[C@@H](NC)C(=O)O; NMeNle = CCCC[C@H](NC)C(=O)O; NMeA = CN[C@@H](C)C(=O)O; Orn = NCCC[C@H](N)C(=O)O; dDap = NC[C@@H](N)C(=O)O; Dab = NCC[C@H](N)C(=O)O; ξP = O=C(O)C1CCCN1; ξC = NC(CS)C(=O)O; Sar = CNCC(=O)O
Tests used:
[1] = molecular target: T1, Human PD-L1/PD-1 (Homo sapiens, UniProt Q9NZQ7); assay: HTRF PD-1-Ig/PD-L1-His binding assay (human PD-L1); details: cluster symbol; read-out: HTRF IC50 cluster
T1 construct: made in house; host or cells: HEK293T
T1 sequence (Q9NZQ7 with tags, fused parts or gaps): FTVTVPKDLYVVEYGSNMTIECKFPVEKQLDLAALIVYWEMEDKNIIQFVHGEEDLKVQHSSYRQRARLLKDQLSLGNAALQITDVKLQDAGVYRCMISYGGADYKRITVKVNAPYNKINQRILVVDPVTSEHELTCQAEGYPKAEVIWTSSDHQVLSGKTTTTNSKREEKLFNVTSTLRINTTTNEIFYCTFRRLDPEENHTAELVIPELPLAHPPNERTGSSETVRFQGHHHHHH
Procedure, shortened: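 Ig- and His-fused extracellular PD-1/PD-L1 binding in BSA/Tween-20 dPBS. HTRF with Eu anti-Ig (1 nM final) and APC anti-His (20 nM final).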

[2] = molecular target: T2, LK35.2-hPD-L1 cells / PE-labeled PD-1-Ig (Homo sapiens, UniProt Q9NZQ7); assay: LK35.2-hPD-L1 cell binding high-content screening assay; assay type: cell-based; details: cluster symbol, read-out: CBA IC50 cluster
T2 construct: expressed in transfected cells; host or cells: LK35.2 mouse B cell line
T2 sequence (Q9NZQ7 19-290): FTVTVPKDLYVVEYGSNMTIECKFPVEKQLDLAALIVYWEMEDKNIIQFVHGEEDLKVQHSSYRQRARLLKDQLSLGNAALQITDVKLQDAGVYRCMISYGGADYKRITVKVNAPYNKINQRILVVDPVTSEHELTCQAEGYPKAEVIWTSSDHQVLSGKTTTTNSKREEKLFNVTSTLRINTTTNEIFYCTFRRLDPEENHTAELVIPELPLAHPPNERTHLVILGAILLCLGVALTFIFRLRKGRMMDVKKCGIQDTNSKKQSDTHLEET
Procedure, shortened: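 Mouse LK35.2 B cells stably overexpressing human PD-L1 were cultured overnight in RPMI with 10% FCS, then given compound and PE-labeled human PD-1-Ig (1 nM final) for 1 h at 37 °C. After three dPBS washes, bound fluorescence was quantified by high-content imaging.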

[3] = cell line of CBA not given (LK35.2-hPD-L1 or 293T-hPD-L1)
[4] = cell binding assay, cell line not given

Row | SMILES | IC50 [1] [nM] | IC50 [2, 3] [nM] | IC50 [2, 4] [nM]
1 | CCCC[C@H]1C(=O)N(C)[C@@H](CCCC)C(=O)N[C@@H](CCCNC(=N)N)C(=O)N[C@H](C(=O)NCC(N)=O)CSCC(=O)N[C@@H](Cc2ccc(O)cc2)C(=O)N(C)[C@@H](CC(=O)O)C(=O)N[C@@H](CC(N)=O)C(=O)N2CCC[C@H]2C(=O)N[C@@H](Cc2cnc[nH]2)C(=O)N[C@@H](CC(C)C)C(=O)N2CCC[C@H]2C(=O)N[C@@H](Cc2c[nH]c3ccccc23)C(=O)N[C@@H](CO)C(=O)N[C@@H](Cc2csc3ccccc23)C(=O)N1C [Example 1190] ({CH2CO}-Y[NMeD]NPHLPWS[Bta][NMeNle][NMeNle]RCG-NH2; thioether N-14) | > 30.5 | > 74.3 | –
2 | CCCC[C@H]1C(=O)N(C)CC(=O)N[C@@H](CC(=O)O)C(=O)N[C@@H](C(C)C)C(=O)N(C)[C@@H](Cc2ccccc2)C(=O)N[C@@H](Cc2ccc(O)cc2)C(=O)N(C)CC(=O)N[C@@H](C)C(=O)N[C@@H](Cc2ccc(O)cc2)C(=O)N[C@@H](CC(C)C)C(=O)N[C@@H](C(=O)NCC(N)=O)CSCC(=O)N[C@@H](Cc2ccccc2)C(=O)N(C)[C@@H](Cc2ccccc2)C(=O)N1C [Example 1001] (HELM PEPTIDE1{[O=C(C[*:3])[*:2]].F.[meF].[CCCC[C@@H](C(=O)[*:2])N(C)[*:1]].[Sar].D.V.[meF].Y.[Sar].A.Y.L.[dC].G.[am]}$PEPTIDE1,PEPTIDE1,1:R3-14:R3$$$V2.0) | > 30.5 | > 74.3 | –
3 | CCCC[C@H]1C(=O)N(C)[C@@H](CCCC)C(=O)N[C@@H](CCCNC(=N)N)C(=O)N[C@H](C(=O)NCC(N)=O)CSCC(=O)N[C@@H](Cc2ccc(Cl)cc2)C(=O)N(C)[C@@H](C)C(=O)N[C@@H](CC(N)=O)C(=O)N2CCC[C@H]2C(=O)N[C@@H](Cc2cnc[nH]2)C(=O)N[C@@H](CC(C)C)C(=O)N2CCC[C@H]2C(=O)N[C@@H](Cc2c[nH]c3ccccc23)C(=O)N[C@@H](CO)C(=O)N[C@@H](Cc2csc3ccccc23)C(=O)N1C [Example 1124] ({CH2CO}-[Phe(4-Cl)][NMeA]NPHLPWS[Bta][NMeNle][NMeNle]RCG-NH2; thioether N-14) | 6.76 to 30.3 | 4.78 to 72.9 | –
4 | CCCC[C@H]1C(=O)N(C)[C@@H](CCCC)C(=O)N[C@@H](C)C(=O)N[C@H](C(=O)NCC(N)=O)CSCC(=O)N[C@@H](Cc2ccc(O)cc2)C(=O)N(C)[C@@H](C)C(=O)N[C@@H](CCC(=O)O)C(=O)N2CCC[C@H]2C(=O)N[C@@H](Cc2cnc[nH]2)C(=O)N[C@@H](CC(C)C)C(=O)N2C[C@H](O)C[C@H]2C(=O)N[C@@H](Cc2c[nH]c3ccccc23)C(=O)N[C@@H](CO)C(=O)N[C@@H](Cc2c[nH]c3ccccc23)C(=O)N1C [Example 1169] | 6.76 to 30.3 | 4.78 to 72.9 | –
5 | CCCC[C@H]1C(=O)N(C)[C@@H](CCCC)C(=O)N[C@@H]([C@@H](C)CC)C(=O)N[C@H](C(=O)NCC(N)=O)CSCC(=O)N[C@@H](Cc2ccccc2)C(=O)N(C)[C@@H](C)C(=O)N[C@@H](CC(N)=O)C(=O)N2CCC[C@H]2C(=O)N[C@@H](Cc2cnc[nH]2)C(=O)N[C@@H](CC(C)C)C(=O)N(C)CC(=O)N[C@@H](Cc2c[nH]c3ccccc23)C(=O)N[C@@H](CO)C(=O)N[C@@H](Cc2c[nH]c3ccccc23)C(=O)N1C [Example 5018] ({CH2CO}-F[NMeA]NPHL[Sar]WSW[NMeNle][NMeNle]ICG-NH2; thioether N-14) | 6.76 to 30.3 | – | 4.78 to 72.9
6 | CCCC[C@H]1C(=O)N(C)[C@@H](CCCC)C(=O)N[C@@H](CCCNC(=N)N)C(=O)N[C@H](C(=O)NCC(N)=O)CSCC(=O)N[C@@H](Cc2ccc(O)cc2)C(=O)N(C)[C@@H](C)C(=O)N[C@@H](CC(N)=O)C(=O)N2CCC[C@H]2C(=O)N[C@@H](Cc2cnc[nH]2)C(=O)N[C@@H](CC(C)C)C(=O)N2C[C@H](O)C[C@H]2C(=O)N[C@@H](Cc2c[nH]c3ccccc23)C(=O)N[C@@H](CCCN)C(=O)N[C@@H](Cc2c[nH]c3ccccc23)C(=O)N1C [Example 1133] ({CH2CO}-Y[NMeA]NPHL[Hyp]W[Orn]W[NMeNle][NMeNle]RCG-NH2; thioether N-14) | 6.76 to 30.3 | 0.158 to 4.71 | –
7 | CCCC[C@H]1C(=O)N(C)[C@@H](CCCC)C(=O)N[C@@H](CC(N)=O)C(=O)N[C@H](C(=O)NCC(N)=O)CSCC(=O)N[C@@H](Cc2ccccc2)C(=O)N(C)[C@@H](C)C(=O)N[C@@H](CC(N)=O)C(=O)N2CCC[C@H]2C(=O)N[C@@H](Cc2cnc[nH]2)C(=O)N[C@@H](CC(C)C)C(=O)N(C)CC(=O)N[C@@H](Cc2c[nH]c3ccccc23)C(=O)N[C@@H](CO)C(=O)N[C@@H](Cc2c[nH]c3ccccc23)C(=O)N1C [Example 5014] ({CH2CO}-F[NMeA]NPHL[Sar]WSW[NMeNle][NMeNle]NCG-NH2; thioether N-14) | 6.76 to 30.3 | – | 4.78 to 72.9
8 | CCCC[C@H]1C(=O)N(C)[C@@H](CCCC)C(=O)N[C@@H](CCCNC(=N)N)C(=O)NC(C(=O)NCC(N)=O)CSCC(=O)N[C@@H](Cc2ccc(O)cc2)C(=O)N(C)[C@@H](C)C(=O)N[C@@H](CC(N)=O)C(=O)N2CCC[C@H]2C(=O)N[C@@H](Cc2c[nH]cn2)C(=O)N[C@@H](C)C(=O)N[C@@H](CC(C)C)C(=O)N2CCC[C@H]2C(=O)N[C@@H](Cc2c[nH]c3ccccc23)C(=O)N[C@@H](CO)C(=O)N[C@@H](Cc2c[nH]c3ccccc23)C(=O)N1C (stereo partly shown) [Example 10517] ({CH2CO}-Y[NMeA]NPHALPWSW[NMeNle][NMeNle]R[ξC]G-NH2; thioether N-15) | > 30.5 | – | > 74.3
9 | CCCC[C@@H]1C(=O)N(C)[C@H](CCCC)C(=O)N[C@@H](CCCN)C(=O)N[C@@H](C(=O)NCC(N)=O)CSCC(=O)N[C@@H](Cc2ccc(O)cc2)C(=O)N2CCCC2C(=O)N[C@H](CC(=O)O)C(=O)N2CCC[C@H]2C(=O)N[C@H](CN)C(=O)N[C@@H](CCC(=O)O)C(=O)N2CCCC2C(=O)N[C@H](Cc2c[nH]c3ccccc23)C(=O)N[C@@H](CCN)C(=O)N[C@@H](Cc2c[nH]c3ccccc23)C(=O)N1C (stereo partly shown) [Example 1214] ({CH2CO}-Y[ξP][dD]P[dDap]E[ξP][dW][Dab]W[dNMeNle][dNMeNle][Orn][dC]G-NH2; thioether N-14) | 6.76 to 30.3 | 4.78 to 72.9 | –
10 | CCCC[C@H]1C(=O)N(C)[C@@H](CCCC)C(=O)N[C@@H](CCCNC(=N)N)C(=O)NC(C(=O)NCC(N)=O)CSCC(=O)N[C@@H](Cc2ccc(O)cc2)C(=O)N(C)[C@@H](C)C(=O)N[C@@H](CC(N)=O)C(=O)N2[C@@H](C)CC[C@H]2C(=O)N[C@@H](Cc2cnc[nH]2)C(=O)N[C@@H](CC(C)C)C(=O)N2CCC[C@H]2C(=O)N[C@@H](Cc2c[nH]c3ccccc23)C(=O)N[C@@H](CO)C(=O)N[C@@H](Cc2c[nH]c3ccccc23)C(=O)N1C (stereo partly drawn) [Example 9017] ({CH2CO}-Y[NMeA]N[Pro(5S-Me)]HLPWSW[NMeNle][NMeNle]R[ξC]G-NH2; thioether N-14) | 6.76 to 30.3 | – | 4.78 to 72.9
11 | CCCC[C@H]1C(=O)N(C)[C@@H](CCCC)C(=O)N[C@@H](CCCNC(=N)N)C(=O)N[C@H](C(=O)NCC(N)=O)CSCC(=O)N[C@@H](Cc2ccc(O)cc2)C(=O)N(C)[C@@H](C)C(=O)N[C@@H](CCN)C(=O)N2CCC[C@H]2C(=O)N[C@@H](CO)C(=O)N[C@@H](CCC(=O)O)C(=O)N2C[C@H](O)C[C@H]2C(=O)N[C@@H](Cc2c[nH]c3ccccc23)C(=O)N[C@@H](CO)C(=O)N[C@@H](Cc2c[nH]c3ccccc23)C(=O)N1C [Example 5130] ({CH2CO}-Y[NMeA][Dab]PSE[Hyp]WSW[NMeNle][NMeNle]RCG-NH2; thioether N-14) | 6.76 to 30.3 | – | 0.158 to 4.71
12 | CCCC[C@H]1C(=O)N(C)[C@@H](CCCC)C(=O)N[C@@H](CCCNC(=N)N)C(=O)N[C@H](C(=O)NCC(N)=O)CSCC(=O)N[C@@H](Cc2ccc(C)c(C)c2)C(=O)N(C)[C@@H](C)C(=O)N[C@@H](CC(N)=O)C(=O)N2CCC[C@H]2C(=O)N[C@@H](Cc2cnc[nH]2)C(=O)N[C@@H](CC(C)C)C(=O)N2CCC[C@H]2C(=O)N[C@@H](Cc2c[nH]c3ccccc23)C(=O)N[C@@H](CO)C(=O)N[C@@H](Cc2c[nH]c3ccccc23)C(=O)N1C [Example 7015] ({CH2CO}-[Phe(3,4-Me2)][NMeA]NPHLPWSW[NMeNle][NMeNle]RCG-NH2; thioether N-14) | 6.76 to 30.3 | – | 4.78 to 72.9
13 | CCCC[C@H]1C(=O)N(C)[C@@H](CCCC)C(=O)N[C@@H](CCCNC(=N)N)C(=O)N[C@H](C(=O)NCC(=O)N[C@@H](C)C(N)=O)CSCC(=O)N[C@@H](Cc2ccc(O)cc2)C(=O)N(C)[C@@H](C)C(=O)N[C@@H](CC(N)=O)C(=O)N2CCC[C@H]2C(=O)N[C@@H](Cc2cnc[nH]2)C(=O)N[C@@H](CC(C)C)C(=O)N2C[C@H](O)C[C@H]2C(=O)N[C@@H](Cc2c[nH]c3ccccc23)C(=O)N[C@@H](CO)C(=O)N[C@@H](Cc2c[nH]c3ccccc23)C(=O)N1C [Example 6019] ({CH2CO}-Y[NMeA]NPHL[Hyp]WSW[NMeNle][NMeNle]RCGA-NH2; thioether N-14) | 0.385 to 6.74 | – | 0.158 to 4.71
14 | CCCC[C@H]1C(=O)N(C)CC(=O)N[C@@H](CC(=O)O)C(=O)N[C@@H](C(C)C)C(=O)N(C)[C@@H](Cc2ccccc2)C(=O)N[C@@H](Cc2ccc(O)cc2)C(=O)N(C)CC(=O)N[C@@H](Cc2c[nH]c3ccccc23)C(=O)N[C@@H](Cc2ccc(O)cc2)C(=O)N[C@@H](CC(C)C)C(=O)N[C@H](C(=O)NCC(N)=O)CSCC(=O)N[C@@H](Cc2ccccc2)C(=O)N(C)[C@@H](Cc2cccc3ccccc23)C(=O)N1C (single isomer, unassigned) [Example 3585-B] | 6.76 to 30.3 | – | 4.78 to 72.9

From patent US9850283B2, “Macrocyclic inhibitors of the PD-1/PD-L1 and CD80(B7-1)/PD-L1 protein/protein interactions” (BRISTOL-MYERS SQUIBB COMPANY, priority 2013, dated 2017)
